Source: article PMC11071266, “The putative proton-coupled organic cation antiporter is involved in uptake of triptans into human brain capillary endothelial cells” (Fluids and Barriers of the CNS, 2024)
Entries after “also recorded” stand apart in the source; their conditions may differ. Read-outs that look alike come from different tables or passages of the source.

Key:
H^+/OC antiporter [1] = assay: Cellular uptake into hCMEC/D3 cells in absence or presence of pyrilamine or oxycodone; assay type: cell-based, human; details: triptan 50 µM, asterisks = P level; for Inhibition by oxycodone (of the compound's uptake): 500 µM oxycodone; for Inhibition by pyrilamine (of the compound's uptake): 500 µM pyrilamine
Protocol: (§1) The cells were equilibrated in hHBSS with or without inhibitor for 15 min (37 °C, 90 rpm). The compound of interest was spiked into the hHBSS followed by incubation for a designated time. The timeframe of the initial uptake rate was validated into hCMEC/D3 cells (Fig. 1 and Additional file 1). The experiment was terminated by washing three times with ice-cold HBSS supplemented with 0.0375% (v/v) sodium bicarbonate.
The hCMEC/D3 cells were used for time-dependent uptake studies between passage 3–5 (pyrilamine), 7–9 (oxycodone), 6–8 (almotriptan), and 24–31 (eletriptan).
The hCMEC/D3 cells were used for uptake studies of almotriptan, eletriptan, and sumatriptan in the presence of pyrilamine and oxycodone between passage 21–23.
(§2) The cells were permeabilized using 50% (v/v) acetonitrile (HPLC LC–MS grade, VWR International S.A.S, Soeborg, Denmark) in ultrapure water (ELGA, Buckinghamshire, England) for 10 min at room temperature. Thereafter, the cells were scraped off the bottom of the wells and transferred to HPLC vials. Samples from bidirectional transport experiments were transferred directly into HPLC vials. All samples were stored at – 18 °C for later analysis. Calibration curves with standards in the range of 1 or 5–1000 ng/mL were dissolved in 50% (v/v) acetonitrile in ultrapure water (ELGA, Buckinghamshire, England), or in hHBSS(-) for analysis of bidirectional transport samples.
(§3) Liquid chromatography tandem mass spectrometry (LC–MS/MS) were performed using electrospray ionization in positive mode on a micromass Quattro micro™ API tandem quadrupole mass spectrometer (Waters, MA, USA) or an Ultivo triple quadrupole mass spectrometer (Agilent Technologies, CA, USA) coupled to Agilent HPLC system 1100 Series or 1260 Series (Agilent Technologies, CA, USA California), respectively. Applied columns were an InfinityLab Poroshell 120 EC-C18 (3.0 × 50 mm; 2.7 micron, Agilent Technologies, CA, USA) or a Kinetex 2.6 μm XB-C18 (100 Å, 100 × 4.6 mm, Phenomenex Inc., CA, USA). An overview of applied HPLC and MS/MS parameters can be found in Additional file 2 and Additional file 3, respectively. The data acquisition software was MassLynx (V4.1, Waters, MA, USA).

[2] = C57, mouse, 1 µM
From the text: C57 mice were used to prepare blank plasma and brain matrices throughout all binding studies.

[3] = set-up: method as in PMID 32173558; details: cited from earlier work
[4] = In vivo brain distribution by neuropharmacokinetic assessment at steady state; set-up: species or system mice; details: for Kp at 2 h / concentration at 2 h: male, mouse; for Kp at 2 h: brain and plasma
Protocol: Male Abcb1a/Abcb1b-eKO1 (P-gp knockout) mice and FVB wild-type counterparts (18–24 g at arrival) were obtained from Shanghai Biomodel Organism Science & Technology Development Co. Ltd (Shanghai, China). […] Animals were housed in pairs in a temperature-controlled environment (20–24 °C) with lighting maintained under a 12-h light–dark cycle. Animals were habituated for at least seven days prior to surgery with free access to food and water.
In vivo experiments were conducted to assess the extent of the BBB transport of eletriptan and to elucidate the involvement of active transport processes. All mice were cannulated in the jugular vein for intravenous drug administration. Following surgery, the animals were allowed to recover for 3 days before administration of test compounds. Eletriptan HBr was dosed in P-gp knockout and wild type mice using a loading dose of 2 mg/kg (as bolus) followed by a 2-h constant rate infusion of 3 mg/kg (1.5 mg/kg/h) dissolved in 0.9% NaCl. […] Throughout all studies a dose volume of 10 mL/kg was applied. Serial blood samples were taken from the saphenous vein during the infusion to verify steady state and at the end of infusion. Terminal blood samples were collected from all animals. Brain samples were prepared by homogenization using ultrasonication as described previously [39] and analyzed together with the plasma samples using LC–MS/MS [39].
The total brain and plasma concentration partition coefficient (Kp) was calculated from Eq. 7.7 Kp=Ctot,brain,ss/Ctot,plasma,ss where Ctot,brain,ss and Ctot,plasma,ss is the total drug concentration at steady state in brain and plasma, respectively.
The unbound brain and plasma partition coefficient (Kp,uu) was derived from dividing the unbound brain concentration with the unbound plasma concentration at the end of infusion for each animal. The Kp,uu was calculated from Eq. 8.8 Kp,uu=Ctot,brain,ss·fu,brain/Ctot,plasma,ss·fu,plasma where fu,brain and fu,plasma is the fraction of unbound drug in the brain and plasma, respectively.

H^+/OC antiporter [5] = assay: Concentration-dependent cellular uptake into hCMEC/D3 cells (Michaelis-Menten kinetics); assay type: cell-based, human
Protocol: The immortalized human cerebral microvascular endothelial cell line (hCMEC/D3) was maintained in T75-flasks coated with collagen type I from calf skin (C9791, 18.7 μg/mL) and cultured in EBM®-2 medium (Lonza, Basel, Schweiz) supplemented with 5% (v/v) fetal bovine serum (FBS, 10270, Life Technologies, CA, USA or SH3008803, ThermoFisher Scientific, MA, USA), 100 U/mL penicillin and 100 μg/ml streptomycin, 1 ng/mL human basic fibroblast growth factor (bFGF), 1.4 μM hydrocortisone, 1% (v/v) chemically defined lipid concentrate (ThermoFisher Scientific, MA, USA), 10 mM N-2-hydroxyethylpiperazine-N-2-ethane sulfonic acid (HEPES) and 5 μg/mL ascorbic acid (5% CO2, 37 °C). […] For experiments, cells were seeded into 24-well plates (6.7·10^4 cells/cm^2) and cultured for four continuous days. The cells were used for experiments between passage 3–31.
as §1
To assess the concentration-dependent uptake, the uptake flux was fitted to the Michaelis–Menten equation, Eq. 1.1 Jss=Jmax[S]/Km+[S] where Jss represents flux under steady state, Jmax is the maximal flux, [S] is the substrate concentration, and Km is the Michaelis–Menten constant.
The hCMEC/D3 cells were used for concentration-dependent uptake studies between passage 21–23 (pyrilamine), 11–13 (oxycodone), 12–14 (almotriptan), 16–18 (eletriptan), and 12–14 (sumatriptan).
as §2, §3
The protein content of hCMEC/D3 cells was determined for normalization purposes. Cells were washed with ice-cold phosphate buffered saline following cell lysis in cell extraction buffer (FNN0011, Thermo Fisher Scientific, MA, USA) supplemented with 1 × cOmplete™ Protease Inhibitor Cocktail (04693116001, Roche, Basel, Schweiz), 1 mM phenylmethylsulfonyl fluoride, and […] for 30 min on ice.

P-gp [6] = system: P-gp; set-up: method as in PMID 12814962; details: brain Kp in wild type and mdr1a knockout mice; cited from earlier work
[7] = pH 7.4; cited from earlier work
P-gp [8] = biological target: T1, P-gp (Homo sapiens, UniProt P08183); set-up: expressed in transfected cells; host or cells: IPEC-J2 (porcine ileum epithelial cell line); method as in PMID 12438524; details: MDR1-MDCKII cell line; cited from earlier work
[9] = Physicochemical properties extracted from databases
From the text: Triptans are a relatively homogeneous group of drug compounds with similar physicochemical properties, including molecular weights < 400 g/mol and a low to moderate lipophilicity (cLogD values ranging from − 2.1–0.18). […] As a consequence, it is unlikely that triptans cross the brain microvascular endothelium through passive diffusion to a clinically relevant extent. Table 1 summarizes structures and physicochemical properties of the triptans, as well as oxycodone and pyrilamine, which are two prototypical H^+/OC antiporter substrates included in this study.

P-gp [10] = biological target: T1, P-gp; assay: Bidirectional transport across IPEC-J2 MDR1 monolayers; details: pH 7.4
Protocol: The porcine ileum epithelial cell line IPEC-J2 transfected with human MDR1 [37] was maintained in T175-flasks and cultured in Dulbecco's Modified Eagle Medium/Nutrient Mixture F-12, supplemented with 10% (v/v) FBS (SH3008803, ThermoFisher Scientific, MA, USA), 100 U/mL penicillin and 100 μg/mL streptomycin, 2 mM L-glutamine, and 1 mM sodium pyruvate. The culture medium was supplemented with 2 µg/mL puromycin during maintenance. Culture media was changed every second or third day. Cells were passaged using trypsin–EDTA solution 10x (5–10 min, 5% CO2, 37 °C). For experiments, cells were either seeded into 24-well plates (1·10^5 cells/cm^2) and cultured for 2 days or seeded on Transwell® polyester inserts (3460, 1.12 cm^2, pore size 0.4 µm) (3.57·10^4 cells/cm^2) and cultured for 15–17 days. IPEC-J2 MDR1 cells were used for experiments between passage 2–4.
Bidirectional transport studies were conducted using IPEC-J2 MDR1 cell monolayers cultured on semipermeable Transwell® polyester inserts (Corning Inc., NY, USA, 3460, 1.12 cm^2, pore size 0.4 µm). The cells were washed twice with 37 °C hHBSS. […]
The accumulated amount of drug (Q) was calculated for each time-point using Eq. 3.3 Q=Vs∑n-1nCn-1+CnVt where Vs represents the sample volume, Vt the total volume of the receiver compartment, Cn is the concentration of the sample n.
Steady state flux (Jsteady state) was calculated as the slope of the linear part of the accumulated amount (Q) in the receiver compartment as function of time from Eq. 4.4 Jss=ΔQ/Δt·A where t represents time and A is the area of the permeable support.
The apparent permeability (Papp) was calculated from Eq. 5.5 Papp=Jss/Cdonor where Cdonor represents the initial concentration in the donor compartment.
Efflux ratios (ER) were calculated as the ratio of the apparent permeability in the basolateral to apical direction Papp(B-A) and the permeability in the apical to basolateral direction Papp(A-B) using Eq. 6.6 ER=PappB-A/Papp(A-B)

H^+/OC antiporter [11] = system: H^+/OC antiporter; set-up: method as in PMID 35955563; details: trans-stimulation in hCMEC/D3 cells; cited from earlier work

T1 sequence (P08183 whole entry): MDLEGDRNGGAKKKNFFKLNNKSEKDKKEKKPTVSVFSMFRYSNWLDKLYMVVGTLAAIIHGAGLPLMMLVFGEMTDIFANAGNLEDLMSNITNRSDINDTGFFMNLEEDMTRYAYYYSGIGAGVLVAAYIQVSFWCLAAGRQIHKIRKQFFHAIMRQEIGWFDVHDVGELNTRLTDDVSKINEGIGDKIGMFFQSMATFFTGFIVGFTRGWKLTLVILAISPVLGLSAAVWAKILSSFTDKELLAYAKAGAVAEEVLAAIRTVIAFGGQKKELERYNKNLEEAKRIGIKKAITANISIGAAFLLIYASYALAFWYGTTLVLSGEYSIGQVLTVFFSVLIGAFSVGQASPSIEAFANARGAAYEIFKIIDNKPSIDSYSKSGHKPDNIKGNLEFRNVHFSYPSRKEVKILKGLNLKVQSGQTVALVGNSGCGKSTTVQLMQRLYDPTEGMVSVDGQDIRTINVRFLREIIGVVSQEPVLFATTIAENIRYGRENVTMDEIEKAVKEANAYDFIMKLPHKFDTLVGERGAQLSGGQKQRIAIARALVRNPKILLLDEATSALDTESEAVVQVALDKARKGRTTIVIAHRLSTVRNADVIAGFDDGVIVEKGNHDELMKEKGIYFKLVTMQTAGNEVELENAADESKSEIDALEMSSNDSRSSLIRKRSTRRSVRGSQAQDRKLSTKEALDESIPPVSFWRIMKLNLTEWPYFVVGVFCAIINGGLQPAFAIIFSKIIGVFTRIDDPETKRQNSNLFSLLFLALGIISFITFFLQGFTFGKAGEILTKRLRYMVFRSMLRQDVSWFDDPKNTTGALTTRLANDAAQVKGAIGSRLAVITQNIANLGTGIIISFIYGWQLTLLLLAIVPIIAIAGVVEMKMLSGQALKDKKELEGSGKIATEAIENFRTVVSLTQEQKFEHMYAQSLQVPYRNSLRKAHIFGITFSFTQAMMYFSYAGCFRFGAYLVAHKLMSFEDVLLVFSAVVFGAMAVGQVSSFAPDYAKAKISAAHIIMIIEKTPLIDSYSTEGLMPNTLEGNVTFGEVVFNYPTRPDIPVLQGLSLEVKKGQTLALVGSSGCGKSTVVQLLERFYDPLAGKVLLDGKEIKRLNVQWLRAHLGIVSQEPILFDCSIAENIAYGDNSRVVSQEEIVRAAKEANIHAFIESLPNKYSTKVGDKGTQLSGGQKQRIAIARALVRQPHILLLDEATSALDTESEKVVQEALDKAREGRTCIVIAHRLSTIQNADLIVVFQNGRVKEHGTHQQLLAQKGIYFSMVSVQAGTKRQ

fu,plasma [2]: 40%
fu,brain ([2]; plasma): 8.3%
Increase of brain uptake (Kp, Kp,uu) in mdr1a/1b knockout vs wild type mice ([4]; knockout vs wild type): > 30 fold
Kp at 2 h ([4]; Abcb1a/Abcb1b-eKO1 (P-gp knockout), intravenous, mdr1a/1b knockout mice, steady state, read-out: Kp (C,brain/C,plasma)): 6.35 ± 0.91
Kp at 2 h ([4]; Abcb1a/Abcb1b-eKO1 (P-gp knockout), intravenous, mdr1a/1b knockout mice, steady state, read-out: Kp,uu (C,brain·fu,brain)/C,plasma·fu,plasma)): 1.32
concentration at 2 h ([4]; Abcb1a/Abcb1b-eKO1 (P-gp knockout), brain, intravenous, mdr1a/1b knockout mice, steady state, read-out: C,brain): 1450 ± 175 ng/mL
concentration at 2 h ([4]; Abcb1a/Abcb1b-eKO1 (P-gp knockout), plasma, iv, mdr1a/1b knockout mice, steady state, 2-h i.v. infusion, read-out: C,plasma): 229 ± 6 ng/mL
concentration at 2 h ([4]; FVB (wild type and Abcb1a/Abcb1b knockout), plasma, intravenous, bolus dose followed by 2-h constant infusion, read-out: Plasma concentrations at steady state): 259 ± 30 ng/mL
Kp at 2 h ([4]; FVB wild-type (eletriptan), C57BL/6N (diphenhydramine), intravenous, wild type mice, steady state, read-out: Kp (C,brain/C,plasma)): 0.17 ± 0.016
Kp at 2 h ([4]; FVB wild-type (eletriptan), C57BL/6N (diphenhydramine), intravenous, wild type mice, steady state, read-out: Kp,uu (C,brain·fu,brain)/C,plasma·fu,plasma)): 0.04
concentration at 2 h ([4]; FVB wild-type (eletriptan), C57BL/6N (diphenhydramine), brain, intravenous, wild type mice, steady state, read-out: C,brain): 41 ± 5 ng/mL
concentration at 2 h ([4]; FVB wild-type (eletriptan), C57BL/6N (diphenhydramine), plasma, iv, wild type mice, steady state, 2-h i.v. infusion, read-out: C,plasma): 240 ± 18 ng/mL
Overall charge pH 7.4 [9]: Positive
Papp A→B at 120 min, 50 µM (P-gp [10]): 0.82 ± 0.05 ×10⁻⁶ cm/s
Papp B→A at 120 min, 50 µM (P-gp [10]): 24 ± 2 ×10⁻⁶ cm/s
efflux ratio at 120 min, 50 µM (P-gp [10]): 28.9 ± 1.8
Compound: CN1CCC[C@@H]1Cc1c[nH]c2ccc(CCS(=O)(=O)c3ccccc3)cc12 [Eletriptan]
Inhibition by oxycodone (of the compound's uptake) (H^+/OC antiporter [1]): yes (*)
Inhibition by oxycodone (of the compound's uptake) (H^+/OC antiporter [1]; listed as eletriptan): inhibited the uptake of eletriptan in a statistically significant manner
Inhibition by pyrilamine (of the compound's uptake) (H^+/OC antiporter [1]): yes (****)
Inhibition by pyrilamine (of the compound's uptake) (H^+/OC antiporter [1]; listed as eletriptan): inhibited the uptake of eletriptan in a statistically significant manner; also recorded: almost be completely inhibited
Clinically relevant human peak plasma concentrations [3]: 94 to 200 ng/mL
Clinically relevant plasma concentrations ([3]; human): 246 to 523 nM
Concentration-dependent uptake (saturability) (H^+/OC antiporter [5]; hCMEC/D3 cells, tested concentration range): reaching saturation within a 500 µM concentration
Association with H^+/OC antiporter (H^+/OC antiporter [5]; summary of uptake and inhibition studies in hCMEC/D3 cells): Substrate potent inhibitor
Jmax (H^+/OC antiporter [5]; uptake into hCMEC/D3 cells): 2.2 ± 0.7 nmol·min^−1·mg protein^−1
Km (H^+/OC antiporter [5]; uptake into hCMEC/D3 cells, read-out: Apparent Km): 89 ± 38 µM
P-gp substrate (P-gp [6]): substrates of P-gp
cLogD pH 7.4 [7]: 1.1
ER (P-gp [8]): 44.7
H^+/OC antiporter substrate (H^+/OC antiporter [11]): might be a substrate of the H^+/OC antiporter
